Laboratory results as given in patent US11458094B2, “Compositions and methods for treating pulmonary edema or lung inflammation” (priority 2018, dated 2022).

Tests used:
RLE-6TN cells = assay: RLE-6TN cell survival and recovery under hyperoxia, viable cells by trypan blue exclusion; format: cell-based, rat
Method: FIG. 7. […] The cells were cultured in DMEM/F12 with 10% FBS in 21% O2 and 5% CO2 overnight. […] The viable cells are counted immediately after 72-hour hyperoxia exposure. Cell viability is assessed with trypan blue. The amount of viable cells under specific conditions is presented as a percentage of the cell number from hyperoxia alone. Data are mean±s.d. of four independent experiments with *=P<0.05; **=P<0.01.
FIG. 8. […] In both (A) and (B), the number of viable cells under specific conditions is presented as a percentage of the cell number related to hyperoxia alone in the same experiment. Data are mean±s.d. of four independent experiments with *=P<0.05; **=P<0.01.
(§1) FIG. 10. HO-1 Upregulation is required for T3-increased RLE-6TN cell survival in hyperoxia. […] The cells were then collected for Western Blot analysis. (B) The cells were incubated in 21% O2 and 5% CO2 for 72 hours in the present of HO-1 inhibitor Tin Protoporphyrin IX(10^-6M) tinT3 (10^−6M). […] Cell viability is assessed with trypan blue. The number of viable cells under specific conditions is presented as a percentage of the cell number related to hyperoxia alone. Data are mean±s.d. of three independent experiments with *=P<0.05; **=P<0.01.
FIG. 11. PI3K inhibitor wortmannin blocked T3-induced cell survival in hyperoxia. […] Cell viability is assessed with trypan blue. The number of viable cells under specific conditions is presented as a percentage of the cell number related to hyperoxia alone. Data are mean±s.d. of four independent experiments with *=P<0.05; **=P<0.01.
At the end of the hyperoxia exposure period, the viable cells were counted by trypan blue dye exclusion.

[1] = Toxicity phase: intratracheal instillation once daily for five consecutive days (GLP safety study); format: in vivo, Sprague-Dawley rats
Method: Safety studies are described in Example 3, below. In a safety study conducted in compliance with Good Laboratory Practices (GLPs), 0.3 mL (300 μl) was administered to rats weighing 250-350 grams via intratracheal instillation daily for five consecutive days. […] The calculated dose based on lung weight was about 1.57 μg/g wet lung weight.
This study was conducted using both male and female Sprague-Dawley rats (Envigo, Huntingdon, United Kingdom). Evaluation of the safety of the tracheal route of instillation for liothyronine sodium injection in human clinical trials can be accomplished in this species at appropriate dose levels. Furthermore, responses to thyroid hormone in rats are similar to responses in humans, and the choice of the rat model is based in large part on pharmacologic data from studies of thyroid hormone and associated receptors and physiological responses in rat lung. The University of Minnesota is accredited by the Association for the Assessment and Accreditation of Laboratory Animal Care, International (AAALAC) and registered with the United States Department of Agriculture to conduct research in laboratory animals. Animal studies conformed to NIH guidelines (Guide for the Care and Use of Laboratory Animals. NIH publication No. 86-23. Revised 1985). The protocol was reviewed and approved, as applicable, by the Institutional Animal Care and Use Committee (IACUC) at the University of Minnesota for compliance with regulations prior to study initiation or implementation of amended activities.
Sixty animals (plus two spare animals/sex/group) were anesthetized and dosed via intratracheal instillation of test or control materials for five consecutive days. On the day after the last dose a terminal blood collection was performed for clinical pathology, after which animals were euthanized and a gross examination of all organs was performed by a board certified veterinary pathologist. Select tissues were collected for histopathology. […] Terminal blood collection was performed at two designated time points per animal up to 24 hours after administration for toxicokinetic evaluation. TK animals were euthanized without further evaluation after the final blood collection. All animals were acclimated for a minimum of seven days prior to the dosing procedure. Animals underwent baseline observations and examinations prior to the initiation of the study, and clinical observations and body weight monitoring were performed throughout the in-life portion of the study. All animals received the same dose volume (0.3 mL) of either test or control materials. This maximum feasible dose (MFD) is constrained by the maximum volume that can be safely and reproducibly (over five days) instilled into lungs of rats weighing 250 g to 350 g, which was determined in preliminary toxicology studies to be 0.3 mL. Actual doses delivered are reported as both μg/kg body weight and μg/gm wet lung weight. The toxicity phase animals were 72-135 days of age at the time of initial dosing. Males weighed between 256.52 g and 307.50 g with a mean±standard deviation of 286.74±11.77 g, and females weighed between 250.46 g and 299.01 g with a mean±standard deviation of 260.64±10.34 g. The TK phase animals were 68-144 days of age at the time of initial dosing. Males weighed between 261.23 g and 316.19 g; females weighed between 250.06 g and 280.32 g.
Test and control materials were drawn into dosing syringes using aseptic technique. Using a 18G needle, 0.5 mL of air was drawn into a 1 cc syringe followed by 0.3 mL (300 μL) of the solutions. Animals were anesthetized with a combination of ketamine, 40 mg/kg to 200 mg/kg, and xylazine, 1 mg/kg to 7 mg/kg intraperitoneally (IP), to effect. The dose was adjusted daily, as needed, based on individual animal response and recovery. Depth of anesthesia was evaluated by toe pinch, and eye lubricant was applied to the eyes. […]

[2] = Preliminary dose-finding studies, 3.0 μg neutral pH T3 intravenous vs intratracheal; format: in vivo, rats
Nrf2 = assay: Western blot of Nrf2 (total cellular and nuclear) in RLE-6TN cells under hyperoxia; format: cell-based, rat; settings: 24 hours hyperoxia, T3 10^−6 M
From the text: FIG. 9. […] The cells were then collected for Western Blotting analysis. (A) Cellular total protein of Nrf2. (B) Nuclear Nrf2.
FIG. 12. T3-induced increase in Nrf2 and HO-1 protein via PI3K in hyperoxia. (A) Western Blot and densitometry data for total Nrf2. (B) Western Blot and densitometry data for cytoplasmic Nrf2. (C) Western Blot and densitometry data for nuclear Nrf2.
Nuclei were extracted with NE-PER nuclear and cytoplasmic extraction reagents kit (Thermo Fisher Scientific, Inc., Waltham, Mass.) following the manufacturer's instruction.
(§2) The cells were lysed in lysis buffer containing 20 mM Tris·HCl (pH 7.5), 150 mM NaCl, 1 mM EDTA, 1 mM EGTA, 1% (vol/vol) Triton X-100 with protease inhibitors (1 mM PMSF, 2 μg/ml pepstatin, and 10 μg/ml each of aprotinin and leupeptin), and phosphatase inhibitors (2.5 mM sodium pyrophosphate, 1 mM β-glycerophosphate, and 1 mM Na3VO4). The lysate was drawn 10 times through a 25-gauge needle on ice for further lysis and then was centrifuged at 13,000 rpm for 15 minutes at 4° C. The supernatant was collected, and the protein concentrations were determined by use of the BCA protein assay kit (Sigma-Aldrich, St. Louis, Mo.). Immediately after this step, equal amounts of protein were subjected to Western blotting analysis.

HO-1 = assay: Western blot of HO-1 in RLE-6TN cells under hyperoxia; format: cell-based, rat; settings: T3 10^−6M
Method: as §1, §2

Akt = Akt phosphorylation (Ser473) in RLE-6TN cells under hyperoxia; format: cell-based, rat; settings: hyperoxia 24 hours, T3 added for 20 minutes, vs room air control and hyperoxia alone
Method: as §2

[3] = system: hyperoxia-induced lung injury; assay: Hyperoxia-induced lung injury in rats: bronchoalveolar lavage protein and cell number; format: in vivo, Sprague Dawley rats; settings: ip T3
From the text: (§3) All experimental protocols for animal treatments were approved by the University of Minnesota Institutional Animal Care and Use Committee. […] The room-air control rats were kept in the University animal housing facility. At the end of hyperoxic exposure, rats were sacrificed by intraperitoneal pentobarbital injection, and the lungs were harvested; the right lobes were allocated for histopathology, measurement of lung tissue myeloperoxidase (MPO) activity and wet-to-dry weight ratio. The left lobes underwent bronchoalveolar lavage (BAL) to determine BAL protein concentrations and differential cell counts.
Bronchoalveolar lavage (BAL) of the left lung was performed using a modification of a method previously described (Pace et al., Exp Lung Res 35:380-398, 2009). Briefly, 4 mls of ice-chilled 1× PBS (pH 7.4) were instilled into the left lung, withdrawn, and re-instilled two subsequent times prior to analysis of the lavage fluid. The retrieved BAL fluid was centrifuged at 1500 rpm for 10 minutes to remove cells and debris. The cell pellet was resuspended in 1 ml of 1× PBS (pH 7.4) and total cell number was counted using a hemocytometer. BAL cytospin preparations were stained using the Hema3 stain kit (Thermo Fisher Scientific, Inc., Waltham, Mass.) to identify the nucleated cells. The protein concentration was determined on the supernatants of BAL fluid using a standard BCA assay (Sigma-Aldrich, St. Louis, Mo.).

[4] = system: myeloperoxidase (MPO) activity in lung tissue; assay: Hyperoxia-induced lung injury in rats: lung myeloperoxidase (MPO) assay; format: in vivo, Sprague Dawley rats; settings: 60 hours hyperoxia, ip T3
From the text: as §3
To quantify the neutrophil activity in the lung, MPO activity was assayed as previously described (Abraham et al., J Immunol 165:2950-2954, 2000). Lung tissues without prior lavage were frozen in liquid nitrogen, weighed, and stored at −86° C. The lungs were homogenized for 30 seconds in 1.5 ml 20 mM potassium phosphate, pH 7.4, and centrifuged at 4° C. for 30 minutes at 40,000×g. The pellet was resuspended in 1.5 ml 50 mM potassium phosphate, pH 6.0, containing 0.5% hexadecyltrimethylammonium bromide, sonicated for 90 seconds, incubated at 60° C. for two hours, and centrifuged at 14,000 rpm for 30 minutes at 4° C. The supernatant was assayed for peroxidase activity corrected to lung weight. MPO was expressed as activity per gram of lung tissue.

[5] = system: hyperoxia-induced lung injury; assay: Hyperoxia-induced lung injury in rats: lung histology and MPO immunostaining; format: in vivo, Sprague Dawley rats
Method: FIG. 17. […] Immunostaining was performed with primary: anti-MPO antibody. Black dots represent MPO-positive cells.
FIG. 18. […] (A) Control: room air; (B) Hyperoxia; (C) Hyperoxia+T3.
as §3
Lung tissue was removed and inflation fixed at 20 cm water pressure in 4% paraformaldehyde, paraffin embedded, cut as 5 micron sections and mounted onto poly-L-lysine slides. Sections were deparaffinized in xylene, rehydrated through a graded alcohol series in methanol, and placed in a 98° C. water bath for 30 minutes in citrate buffer (pH 6.0) for antigen retrieval. After quenching with 0.3% hydrogen peroxide in PBS, sections were incubated in normal serum for 30 minutes and for 15 minutes each with Avidin/Biotin Blocking Kit (Vector Laboratories, Inc., Burlingame, Calif.). […]

[6] = system: rat lung mucosa and airspaces; settings: in vivo
Method: (§4) Therefore, the liothyronine sodium and the vehicle were adjusted to neutral pH (6.0-8.0) with sterile 1.0 N HCl (Sigma-Aldrich, St. Louis, Mo.) added aseptically in a biosafety cabinet prior to intratracheal instillation into animals. Using aseptic technique, vials of liothyronine sodium were opened and the entire contents were transferred into sterile 1.5 mL Eppendorf tubes. 80-90 μL of 1.0 N HCl was added to the tube and gently vortexed, and the pH was measured using pH test strips (pH 4.5 to 10.0, Ricca Chemical Co., Arlington, Tex.). Additional HCl was titrated in gradually, as needed, until the pH was in the desired range. […] This solution was stored at 4° C. and used for up to 26 hours after pH adjustment procedure. […] The vehicle was also adjusted to neutral pH (6.0-8.0) with 1.0 N HCl as described above. Using aseptic technique the vehicle was filter sterilized and aliquoted into 21 sterile disposable tubes (5 mL each) and stored at 4° C., and a new tube was opened for each day of use. Normal Saline (0.9% Sodium Chloride Injection USP, B. Braun Medical, Inc., Bethlehem, Pa.), was stored at room temperature. A new package was opened for each day of use.

[7] = single oral dose of 50 micrograms; cited from earlier work
[8] = system: rat lung mucosa and airspaces; assay: Preliminary studies: intratracheal instillation of liothyronine sodium without pH adjustment; settings: rats, pH of >10.0 as supplied commercially
Method: as §4

In the case of C=Cc1c2[n-]c(c1C)/C=c1\[n-]/c(c(C)c1C=C)=C\c1[n-]c(c(CCC(=O)O)c1C)C=c1[n-]/c(c(C)c1CCC(=O)O)=C\2.[Sn+4] [Tin protoporphyrin, Tin Protoporphyrin IX], the “AT2 cell number in room air” value (RLE-6TN cells; 21% O2 72 hours, 10^-6M) is reported as “no effect” and the “effect on T3-caused increase in cell survival in hyperoxia” value (RLE-6TN cells; 90% O2 72 hours, with T3 10^−6M, inhibitor 10^-6M) is reported as “blocked”.

With N[C@@H](Cc1cc(I)c(Oc2ccc(O)c(I)c2)c(I)c1)C(=O)O [T3, triiodothyronine] the “body weight at terminal euthanasia vs pre-dose” value ([1]; T3 females, toxicity phase) was “weighed slightly less than their pre-dose weight”, the “animals that died after dose administration” value ([1]; T3 test group, toxicity phase, judged not test article related) was “two” and the clinical observations ([1]; during the course of the study) was “No adverse T3 related clinical observations”. For the same compound, the “regain of body weight” value ([1]; female rats, toxicity phase, vs males or control groups) was “did not regain body weight at the same rate”, the hematology parameters ([1]; male rats) was “no statistical or clinically significant changes” and the “treatment-related macroscopic or microscopic findings in end organs” value ([1]; toxicity phase rats) was “no macroscopic or microscopic findings”. For the same compound, the “organ weight of the lungs” value ([1]; toxicity phase rats, five days intratracheal) was “no differences”, the “acute effects on physiologic parameters (respiratory rate, O2 saturation, heart rate)” value ([2]; five days of intratracheal delivery of 3.0 μg neutral pH T3) was “no acute effects” and the “acute effects on physiologic parameters (respiratory rate, O2 saturation, heart rate)” value ([2]; single intravenous delivery of 3.0 μg neutral pH T3) was “no acute effects”. For the same compound, the “nuclear Nrf-2 protein expression” value (Nrf2) was “significantly increased”, the “total cellular Nrf-2 protein expression” value (Nrf2) was “significantly increased” and the “total cellular protein of HO-1” value (HO-1) was “significantly enhanced”. For the same compound, the “phosphorylation of Akt at Ser473” value (Akt) was “augmented”, the “hyperoxic increase in BALF protein concentration” value ([3]; 48 hour hyperoxia) was “attenuated significantly” and the “BALF cell numbers vs hyperoxia alone” value ([3]; 48 hours hyperoxia) was “significantly reduced”. For the same compound, the “hyperoxic increase in BALF protein concentration” value ([3]; 60 hour hyperoxia) was “attenuated significantly”, the “BALF cell numbers vs hyperoxia alone” value ([3]; 60 hours hyperoxia) was “significantly reduced” and the “hyperoxia-induced lung MPO activity” value [4] was “significantly reduced”. The “MPO-positive cells in the lungs vs hyperoxia without T3” value ([5]; 95% oxygen 60 hours, T3-injected) was “fewer MPO-positive cells”, the “lung morphology (histopathology)” value ([5]; 60 hours hyperoxia, systemic T3 supplementation) was “virtually normal lung morphology” and the “toxicity to rat lung mucosa and airspaces” value [6] was “extremely toxic”. For the same compound, the mean half-life [7] was 22.5 h and the “tolerance of intratracheal instillation” value [8] was “do not tolerate”.

For NC(Cc1ccc(Oc2cc(I)c(O)c(I)c2)c(I)c1)C(=O)O (centres unmarked) [rT3], the “cell survival under hyperoxia” value (RLE-6TN cells; 90% oxygen 72 hours, 10^−6M) was “no role in cell survival”.
